What was measured:
Assay in all cases: Kinase selectivity, Z'-LYTE
Type in all cases: biochemical
ADRBK1 (GRK2) = target: T1, ADRBK1 (GRK2) (Homo sapiens, UniProt P25098)
T1 construct: purchased Invitrogen (Life Technologies) SelectScreen Z'-LYTE
T1 sequence (P25098 1-689): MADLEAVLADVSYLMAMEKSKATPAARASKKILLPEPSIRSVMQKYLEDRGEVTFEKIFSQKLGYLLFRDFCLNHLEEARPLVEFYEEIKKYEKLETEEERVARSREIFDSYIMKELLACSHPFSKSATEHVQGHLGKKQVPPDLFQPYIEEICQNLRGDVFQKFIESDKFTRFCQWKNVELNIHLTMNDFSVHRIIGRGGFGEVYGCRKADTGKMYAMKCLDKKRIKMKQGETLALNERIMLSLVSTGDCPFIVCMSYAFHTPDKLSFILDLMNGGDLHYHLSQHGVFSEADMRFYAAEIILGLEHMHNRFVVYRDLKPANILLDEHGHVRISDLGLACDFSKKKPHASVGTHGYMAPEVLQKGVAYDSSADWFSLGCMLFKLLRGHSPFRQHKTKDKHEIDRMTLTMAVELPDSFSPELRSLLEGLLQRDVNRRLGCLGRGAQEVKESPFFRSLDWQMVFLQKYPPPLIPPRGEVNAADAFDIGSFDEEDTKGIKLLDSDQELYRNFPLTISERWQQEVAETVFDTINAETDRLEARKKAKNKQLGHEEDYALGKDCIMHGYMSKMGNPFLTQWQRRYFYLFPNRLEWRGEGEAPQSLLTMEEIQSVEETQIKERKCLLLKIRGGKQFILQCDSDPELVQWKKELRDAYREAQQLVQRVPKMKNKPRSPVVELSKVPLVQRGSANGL
Method in brief: (§1)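 Recombinant kinase, per-kinase optimized mix; FRET peptide read-out after protease development (phospho-peptide resists cleavage).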

CDK7/cyclin H/MNAT1 = target: T2, CDK7/cyclin H/MNAT1 (Homo sapiens, UniProt P50613)
T2 construct: purchased Invitrogen (Life Technologies) SelectScreen Z'-LYTE
Method in brief: as §1

CHEK1 (CHK1) = target: T3, CHEK1 (CHK1) (Homo sapiens, UniProt O14757)
T3 construct: purchased Invitrogen (Life Technologies) SelectScreen Z'-LYTE
T3 sequence (O14757 1-476): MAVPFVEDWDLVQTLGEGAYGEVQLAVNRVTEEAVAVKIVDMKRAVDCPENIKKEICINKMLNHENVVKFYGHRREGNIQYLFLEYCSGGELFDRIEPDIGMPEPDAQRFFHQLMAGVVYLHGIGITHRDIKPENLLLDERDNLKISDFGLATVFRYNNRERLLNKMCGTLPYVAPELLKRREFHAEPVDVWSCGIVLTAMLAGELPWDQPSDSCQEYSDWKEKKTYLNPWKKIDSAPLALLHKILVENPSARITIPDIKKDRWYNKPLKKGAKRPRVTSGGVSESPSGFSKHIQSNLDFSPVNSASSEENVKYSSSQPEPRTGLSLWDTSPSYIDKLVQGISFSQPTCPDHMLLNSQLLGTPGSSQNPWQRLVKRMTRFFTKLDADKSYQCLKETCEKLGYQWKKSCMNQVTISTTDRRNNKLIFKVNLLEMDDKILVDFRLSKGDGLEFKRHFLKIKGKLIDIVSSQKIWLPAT
Method in brief: as §1

EGFR (ErbB1) = target: T4, EGFR (ErbB1) (Homo sapiens, UniProt P00533)
T4 construct: purchased Invitrogen (Life Technologies) SelectScreen Z'-LYTE
Method in brief: as §1

FGFR4 = target: T5, FGFR4 (Homo sapiens, UniProt P22455)
T5 construct: purchased Invitrogen (Life Technologies) SelectScreen Z'-LYTE
Method in brief: as §1

KDR (VEGFR2) = target: T6, KDR (VEGFR2) (Homo sapiens, UniProt P35968)
T6 construct: purchased Invitrogen (Life Technologies) SelectScreen Z'-LYTE
Method in brief: as §1

KIT = target: T7, KIT (Homo sapiens, UniProt P10721)
T7 construct: purchased Invitrogen (Life Technologies) SelectScreen Z'-LYTE
Method in brief: as §1

MAPK1 (ERK2) = target: T8, MAPK1 (ERK2) (Homo sapiens, UniProt P28482)
T8 construct: purchased Invitrogen (Life Technologies) SelectScreen Z'-LYTE
Method in brief: as §1

[1] = target: T9, MAPK14 (p38 alpha) Direct (Homo sapiens, UniProt Q16539)
T9 construct: purchased Invitrogen (Life Technologies) SelectScreen Z'-LYTE
Method in brief: as §1

MAPK3 (ERK1) = target: T10, MAPK3 (ERK1) (Homo sapiens, UniProt P27361)
T10 construct: purchased Invitrogen (Life Technologies) SelectScreen Z'-LYTE
Method in brief: as §1

MST1R (RON) = target: T11, MST1R (RON) (Homo sapiens, UniProt Q04912)
T11 construct: purchased Invitrogen (Life Technologies) SelectScreen Z'-LYTE
Method in brief: as §1

P1K3C2B (P13K-C2-beta) = target: T12, P1K3C2B (P13K-C2-beta) (Homo sapiens, UniProt O00750)
T12 construct: purchased Invitrogen (Life Technologies) SelectScreen Z'-LYTE
Method in brief: as §1

PAK2 (PAK65) = target: T13, PAK2 (PAK65) (Homo sapiens, UniProt Q13177)
T13 construct: purchased Invitrogen (Life Technologies) SelectScreen Z'-LYTE
Method in brief: as §1

T6 sequence (P35968 20-1356): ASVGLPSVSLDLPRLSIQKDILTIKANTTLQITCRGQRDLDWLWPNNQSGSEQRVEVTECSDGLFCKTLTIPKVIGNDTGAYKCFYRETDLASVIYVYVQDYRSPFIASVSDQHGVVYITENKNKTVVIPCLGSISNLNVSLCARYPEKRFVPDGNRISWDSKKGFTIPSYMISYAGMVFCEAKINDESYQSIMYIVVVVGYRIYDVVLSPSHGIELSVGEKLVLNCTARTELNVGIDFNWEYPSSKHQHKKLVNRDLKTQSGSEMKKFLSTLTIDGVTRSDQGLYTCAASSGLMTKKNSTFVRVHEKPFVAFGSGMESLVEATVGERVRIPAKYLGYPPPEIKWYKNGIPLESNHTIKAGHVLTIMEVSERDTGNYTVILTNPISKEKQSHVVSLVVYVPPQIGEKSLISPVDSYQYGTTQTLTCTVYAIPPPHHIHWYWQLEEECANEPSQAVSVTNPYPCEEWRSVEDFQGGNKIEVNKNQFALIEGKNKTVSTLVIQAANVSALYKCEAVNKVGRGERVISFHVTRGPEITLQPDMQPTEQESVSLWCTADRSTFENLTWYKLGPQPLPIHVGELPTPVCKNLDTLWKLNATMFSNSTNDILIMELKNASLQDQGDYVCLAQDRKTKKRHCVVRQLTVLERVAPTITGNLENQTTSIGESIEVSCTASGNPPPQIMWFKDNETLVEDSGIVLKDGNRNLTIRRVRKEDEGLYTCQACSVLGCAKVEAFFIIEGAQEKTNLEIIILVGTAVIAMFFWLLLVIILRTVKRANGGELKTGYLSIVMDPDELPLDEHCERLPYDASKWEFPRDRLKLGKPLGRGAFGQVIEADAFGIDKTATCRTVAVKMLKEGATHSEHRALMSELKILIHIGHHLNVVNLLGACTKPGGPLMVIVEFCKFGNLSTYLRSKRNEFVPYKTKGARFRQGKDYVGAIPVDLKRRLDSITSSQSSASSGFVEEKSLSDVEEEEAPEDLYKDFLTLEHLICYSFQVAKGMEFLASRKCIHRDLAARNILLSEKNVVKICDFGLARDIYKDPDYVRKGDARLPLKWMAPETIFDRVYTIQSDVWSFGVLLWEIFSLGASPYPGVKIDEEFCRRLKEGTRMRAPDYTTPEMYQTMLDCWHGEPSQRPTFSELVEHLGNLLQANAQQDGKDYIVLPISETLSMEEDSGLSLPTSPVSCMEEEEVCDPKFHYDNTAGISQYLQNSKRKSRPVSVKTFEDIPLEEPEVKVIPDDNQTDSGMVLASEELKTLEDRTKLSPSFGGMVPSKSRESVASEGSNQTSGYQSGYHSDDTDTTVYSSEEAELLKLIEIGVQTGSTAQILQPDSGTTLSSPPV
T7 sequence (P10721 26-976): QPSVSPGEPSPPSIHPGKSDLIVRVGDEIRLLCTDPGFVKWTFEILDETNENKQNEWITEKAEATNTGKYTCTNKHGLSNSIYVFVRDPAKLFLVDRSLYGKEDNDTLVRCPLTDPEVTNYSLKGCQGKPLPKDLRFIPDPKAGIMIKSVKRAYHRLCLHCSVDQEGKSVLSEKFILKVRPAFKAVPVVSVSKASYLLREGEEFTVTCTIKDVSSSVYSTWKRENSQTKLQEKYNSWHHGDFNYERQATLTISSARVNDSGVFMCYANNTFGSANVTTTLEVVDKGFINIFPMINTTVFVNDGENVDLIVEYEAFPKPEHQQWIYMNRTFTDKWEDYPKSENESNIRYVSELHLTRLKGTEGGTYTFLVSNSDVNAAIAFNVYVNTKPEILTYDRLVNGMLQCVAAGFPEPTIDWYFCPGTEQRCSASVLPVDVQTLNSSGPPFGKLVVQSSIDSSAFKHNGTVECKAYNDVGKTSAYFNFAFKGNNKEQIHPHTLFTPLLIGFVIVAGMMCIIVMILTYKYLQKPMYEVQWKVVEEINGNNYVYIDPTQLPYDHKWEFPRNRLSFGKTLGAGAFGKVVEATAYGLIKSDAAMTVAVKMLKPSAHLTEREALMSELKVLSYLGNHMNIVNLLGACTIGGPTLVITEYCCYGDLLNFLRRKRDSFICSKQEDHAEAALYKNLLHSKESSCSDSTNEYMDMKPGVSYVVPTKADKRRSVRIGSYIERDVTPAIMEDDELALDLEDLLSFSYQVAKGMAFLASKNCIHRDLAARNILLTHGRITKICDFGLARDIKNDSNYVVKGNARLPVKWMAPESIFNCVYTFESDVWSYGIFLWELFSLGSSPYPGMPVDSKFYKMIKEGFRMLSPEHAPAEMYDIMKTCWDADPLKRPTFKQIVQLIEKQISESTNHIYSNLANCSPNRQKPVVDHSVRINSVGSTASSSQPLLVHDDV
T11 sequence (Q04912 25-1400): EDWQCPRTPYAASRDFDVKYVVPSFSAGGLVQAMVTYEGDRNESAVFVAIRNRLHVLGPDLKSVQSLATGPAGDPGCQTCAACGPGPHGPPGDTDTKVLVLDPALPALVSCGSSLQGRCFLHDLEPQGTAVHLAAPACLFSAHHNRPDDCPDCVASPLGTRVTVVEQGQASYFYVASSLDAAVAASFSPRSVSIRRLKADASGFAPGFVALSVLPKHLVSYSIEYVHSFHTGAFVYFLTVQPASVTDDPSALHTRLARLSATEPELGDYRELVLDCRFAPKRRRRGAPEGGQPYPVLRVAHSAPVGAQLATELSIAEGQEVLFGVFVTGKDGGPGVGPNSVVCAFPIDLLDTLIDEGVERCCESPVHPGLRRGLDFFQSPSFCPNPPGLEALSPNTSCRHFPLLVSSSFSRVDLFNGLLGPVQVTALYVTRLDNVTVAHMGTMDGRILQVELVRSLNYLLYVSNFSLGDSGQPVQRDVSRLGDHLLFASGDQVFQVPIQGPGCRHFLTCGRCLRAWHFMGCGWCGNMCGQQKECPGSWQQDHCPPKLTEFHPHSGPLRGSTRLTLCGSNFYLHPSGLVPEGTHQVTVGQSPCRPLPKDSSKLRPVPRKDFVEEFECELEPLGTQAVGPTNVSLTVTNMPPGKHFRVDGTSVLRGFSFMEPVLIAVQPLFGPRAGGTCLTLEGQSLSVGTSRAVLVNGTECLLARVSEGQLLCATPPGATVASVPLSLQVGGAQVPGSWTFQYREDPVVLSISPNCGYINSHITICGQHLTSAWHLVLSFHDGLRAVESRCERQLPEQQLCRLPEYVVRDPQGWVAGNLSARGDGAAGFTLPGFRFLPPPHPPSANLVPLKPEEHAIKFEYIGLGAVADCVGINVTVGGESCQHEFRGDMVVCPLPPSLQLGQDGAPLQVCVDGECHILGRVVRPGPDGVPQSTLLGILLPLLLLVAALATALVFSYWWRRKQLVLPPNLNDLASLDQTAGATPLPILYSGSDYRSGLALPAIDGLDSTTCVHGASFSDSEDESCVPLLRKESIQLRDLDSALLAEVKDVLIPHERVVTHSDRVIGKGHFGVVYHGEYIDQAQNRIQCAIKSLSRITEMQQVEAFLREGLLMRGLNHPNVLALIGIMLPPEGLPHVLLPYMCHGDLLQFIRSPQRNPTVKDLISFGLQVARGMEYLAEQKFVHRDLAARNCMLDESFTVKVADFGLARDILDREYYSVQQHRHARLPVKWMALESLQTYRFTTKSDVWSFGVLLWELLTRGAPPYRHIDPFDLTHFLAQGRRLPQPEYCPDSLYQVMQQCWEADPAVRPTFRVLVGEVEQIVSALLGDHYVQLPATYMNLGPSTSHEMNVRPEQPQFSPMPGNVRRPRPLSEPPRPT
T9 sequence (Q16539 whole entry): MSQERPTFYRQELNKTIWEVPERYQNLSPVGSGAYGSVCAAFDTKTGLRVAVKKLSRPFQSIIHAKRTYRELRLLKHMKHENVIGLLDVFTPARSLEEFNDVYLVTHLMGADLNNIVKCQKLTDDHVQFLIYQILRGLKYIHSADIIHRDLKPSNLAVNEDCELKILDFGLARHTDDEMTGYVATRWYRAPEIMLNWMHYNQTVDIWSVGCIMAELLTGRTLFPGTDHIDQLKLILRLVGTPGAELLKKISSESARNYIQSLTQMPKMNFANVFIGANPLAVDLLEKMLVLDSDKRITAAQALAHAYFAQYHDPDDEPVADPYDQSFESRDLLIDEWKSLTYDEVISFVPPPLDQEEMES
T10 sequence (P27361 whole entry): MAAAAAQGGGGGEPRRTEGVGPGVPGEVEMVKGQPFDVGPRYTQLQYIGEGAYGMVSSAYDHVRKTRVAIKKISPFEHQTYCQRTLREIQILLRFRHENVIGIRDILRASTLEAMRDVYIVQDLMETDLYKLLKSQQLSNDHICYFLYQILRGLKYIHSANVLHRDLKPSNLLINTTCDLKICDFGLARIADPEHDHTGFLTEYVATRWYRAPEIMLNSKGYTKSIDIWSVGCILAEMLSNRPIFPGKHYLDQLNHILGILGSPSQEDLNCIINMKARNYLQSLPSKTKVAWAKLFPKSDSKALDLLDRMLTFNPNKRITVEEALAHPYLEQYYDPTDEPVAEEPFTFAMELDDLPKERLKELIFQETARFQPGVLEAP
T13 sequence (Q13177 whole entry): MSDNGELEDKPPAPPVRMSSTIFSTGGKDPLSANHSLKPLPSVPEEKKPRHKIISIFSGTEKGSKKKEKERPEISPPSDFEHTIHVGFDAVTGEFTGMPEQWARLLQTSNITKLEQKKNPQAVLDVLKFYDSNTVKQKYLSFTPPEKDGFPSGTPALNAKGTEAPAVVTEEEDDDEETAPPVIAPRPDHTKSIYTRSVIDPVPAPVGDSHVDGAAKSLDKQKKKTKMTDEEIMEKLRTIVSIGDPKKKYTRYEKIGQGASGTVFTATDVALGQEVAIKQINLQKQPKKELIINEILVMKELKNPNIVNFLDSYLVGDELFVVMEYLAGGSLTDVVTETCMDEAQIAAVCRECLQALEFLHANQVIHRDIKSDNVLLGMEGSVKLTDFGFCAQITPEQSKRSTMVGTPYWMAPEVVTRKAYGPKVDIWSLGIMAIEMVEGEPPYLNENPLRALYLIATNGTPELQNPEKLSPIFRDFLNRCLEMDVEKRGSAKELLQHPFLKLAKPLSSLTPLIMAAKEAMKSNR

| Compound | % inhibition of activity (ADRBK1 (GRK2)) [%] | % inhibition of activity (CDK7/cyclin H/MNAT1) [%] | % inhibition of activity (CHEK1 (CHK1)) [%] | % inhibition of activity (EGFR (ErbB1)) [%] | % inhibition of activity (FGFR4) [%] | % inhibition of activity (KDR (VEGFR2)) [%] | % inhibition of activity (KIT) [%] | % inhibition of activity (MAPK1 (ERK2)) [%] | % inhibition of activity [1] [%] | % inhibition of activity (MAPK3 (ERK1)) [%] | % inhibition of activity (MST1R (RON)) [%] | % inhibition of activity (P1K3C2B (P13K-C2-beta)) [%] | % inhibition of activity (PAK2 (PAK65)) [%] |
| --- | --- | --- | --- | --- | --- | --- | --- | --- | --- | --- | --- | --- | --- |
| CCn1c(=O)c(-c2ccc(-c3noc(C)n3)cc2Cl)cc2cnc(Nc3ccc(C4CCN(C)CC4)cc3)nc21 [Frax716] | 10 | 2 | −2 | 20 | 20 | 90 | 77 | 7 | 10 | 8 | 40 | −1 | 100 |
| CCn1c(=O)c(-c2ccc(-c3cncc(C)n3)cc2Cl)cc2cnc(NCCC3CCN(C)CC3)nc21 [Frax1036] | 0 | −3 | −14 | 2 | 9 | 16 | 32 | 5 | 0 | 4 | 55 | 2 | 98 |
| Cc1nc(Nc2[nH]nc3c2CN(C(=O)N[C@H](CN(C)C)c2ccccc2)C3(C)C)c2sccc2n1 [PF3758309, reference compound] | 10 | 96 | 91 | 4 | 11 | 20 | 7 | 23 | 7 | 18 | 8 | 8 | 100 |
